Experimental data from ChEMBL document CHEMBL1201862, “PubChem BioAssay data set” (2004).
Where “and” joins values, the source holds several entries; their conditions need not be identical. Equal values may be shown once.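 Interpolation was linear, between the two tested concentrations surrounding the appropriate level; five concentrations were tested over 48 hours in 96-well plates. The concentration for 50% growth inhibition is given as GI50.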 Calls of active or inactive are those of the source. Rule as the data show it: active = GI50 up to about 1.1 µM and inactive = higher.

What was measured:
Test in all cases: NCI tumour cell line growth inhibition, 48 h
CCRF-CEM = test system: CCRF-CEM
XF498 = test system: XF498
M14 = test system: M14
DMS-114 = test system: DMS-114
SNB-19 = test system: SNB-19
DMS-273 = test system: DMS-273
SK-MEL-2 = test system: SK-MEL-2
SW-620 = test system: SW-620
U-251 = test system: U-251
NCI-H23 = test system: NCI-H23
OVCAR-5 = test system: OVCAR-5
OVCAR-3 = test system: OVCAR-3
SK-MEL-28 = test system: SK-MEL-28
Malme-3M = test system: Malme-3M
T47D = test system: T47D
SN12C = test system: SN12C
HL-60 = test system: HL-60
LXFL 529 = test system: LXFL 529
SF-268 = test system: SF-268
HCC 2998 = test system: HCC 2998
SR = test system: SR
UACC-257 = test system: UACC-257
HOP-18 = test system: HOP-18
IGROV-1 = test system: IGROV-1
TK-10 = test system: TK-10
KM-20L2 = test system: KM-20L2
NCI-H522 = test system: NCI-H522
Hs-578T = test system: Hs-578T
NCI/ADR-RES = test system: NCI/ADR-RES
HT-29 = test system: HT-29
MOLT-4 = test system: MOLT-4
NCI-H460 = test system: NCI-H460
LOX IMVI = test system: LOX IMVI
OVCAR-4 = test system: OVCAR-4
HCT-116 = test system: HCT-116
DLD-1 = test system: DLD-1
A549 = test system: A549
K562 = test system: K562
MDA-N = test system: MDA-N
ACHN = test system: ACHN
CAKI-1 = test system: CAKI-1
HCT-15 = test system: HCT-15
UACC-62 = test system: UACC-62
HOP-62 = test system: HOP-62
NCI-H226 = test system: NCI-H226
SF-295 = test system: SF-295
PC-3 = test system: PC-3
COLO 205 = test system: COLO 205
RXF 393 = test system: RXF 393
KM12 = test system: KM12
RPMI-8226 = test system: RPMI-8226
MCF7 = test system: MCF7
MDA-MB-231 = test system: MDA-MB-231
BT-549 = test system: BT-549
UO-31 = test system: UO-31
M19-MEL = test system: M19-MEL
SK-MEL-5 = test system: SK-MEL-5
786-0 = test system: 786-0
A498 = test system: A498
SF-539 = test system: SF-539
MDA-MB-435 = test system: MDA-MB-435
OVCAR-8 = test system: OVCAR-8
EKVX = test system: EKVX
SNB-75 = test system: SNB-75
SNB-78 = test system: SNB-78
DU-145 = test system: DU-145
SK-OV-3 = test system: SK-OV-3

## CCCCCCCCCCCCCB(O)O
CCRF-CEM
  GI50: > 100 µM (inactive)
XF498
  GI50: > 100 µM (inactive)
M14
  GI50: > 100 µM (inactive)
DMS-114
  GI50: > 100 µM (inactive)
SNB-19
  GI50: > 100 µM (inactive)
DMS-273
  GI50: > 100 µM (inactive)
SK-MEL-2
  GI50: > 100 µM (inactive)
SW-620
  GI50: > 100 µM (inactive)
U-251
  GI50: > 100 µM (inactive)
NCI-H23
  GI50: > 100 µM (inactive)
OVCAR-5
  GI50: > 100 µM (inactive)
OVCAR-3
  GI50: > 100 µM (inactive)

## CC(=O)c1c(O)c(C)c(O)c2c1OC1=CC(=O)C(C(C)=O)C(=O)C12C (centres undefined)
XF498
  GI50: 555 nM (active) and 422 nM (active)
SK-MEL-28
  GI50: 14.3 µM (inactive) and 17.1 µM (inactive)
Malme-3M
  GI50: 13.1 µM (inactive) and 23.7 µM (inactive)

## Cc1cc2c(Br)cc(Br)c(O)c2nc1C(=O)c1ccccc1
CCRF-CEM
  GI50: 8.11 µM (inactive)
T47D
  GI50: 8.17 µM (inactive)
SN12C
  GI50: 20.2 µM (inactive)
HL-60
  GI50: 4.4 µM (inactive)
LXFL 529
  GI50: 21.1 µM (inactive)
SF-268
  GI50: 28.3 µM (inactive)
HCC 2998
  GI50: 18.7 µM (inactive)
SR
  GI50: 14.9 µM (inactive)
UACC-257
  GI50: 24.5 µM (inactive)
HOP-18
  GI50: 18.5 µM (inactive)
IGROV-1
  GI50: 21 µM (inactive)
TK-10
  GI50: 28.4 µM (inactive)
KM-20L2
  GI50: 28.4 µM (inactive)
NCI-H522
  GI50: 13.5 µM (inactive)
Hs-578T
  GI50: > 100 µM (inactive)
NCI/ADR-RES
  GI50: 4.01 µM (inactive)
HT-29
  GI50: 28.4 µM (inactive)
M14
  GI50: > 43.3 µM (inactive)
MOLT-4
  GI50: 24.3 µM (inactive)
DMS-114
  GI50: 31.6 µM (inactive)
NCI-H460
  GI50: 10.6 µM (inactive)
LOX IMVI
  GI50: 10.4 µM (inactive)
OVCAR-4
  GI50: 29.3 µM (inactive)
HCT-116
  GI50: 12.4 µM (inactive)
DLD-1
  GI50: 36.6 µM (inactive)
A549
  GI50: 14.4 µM (inactive)
SNB-19
  GI50: 24.9 µM (inactive)
SK-MEL-28
  GI50: > 62.7 µM (inactive)
K562
  GI50: 10.4 µM (inactive)
MDA-N
  GI50: 16.2 µM (inactive)
ACHN
  GI50: 20.8 µM (inactive)
DMS-273
  GI50: 19 µM (inactive)
CAKI-1
  GI50: 55.8 µM (inactive)
HCT-15
  GI50: 14 µM
SK-MEL-2
  GI50: > 61.1 µM (inactive)
SW-620
  GI50: 55.8 µM (inactive)
Malme-3M
  GI50: 33.2 µM (inactive)
UACC-62
  GI50: 9.59 µM (inactive)
HOP-62
  GI50: 14 µM (inactive)
NCI-H226
  GI50: > 51.1 µM (inactive)
SF-295
  GI50: 10.6 µM (inactive)
PC-3
  GI50: 13.4 µM (inactive)
COLO 205
  GI50: 21.4 µM (inactive)
RXF 393
  GI50: > 47.5 µM (inactive)
U-251
  GI50: 14.4 µM (inactive)
KM12
  GI50: 22.3 µM (inactive)
RPMI-8226
  GI50: 22.4 µM (inactive)
MCF7
  GI50: 10.1 µM (inactive)
MDA-MB-231
  GI50: 20 µM (inactive)
BT-549
  GI50: > 100 µM (inactive)
UO-31
  GI50: 12.2 µM (inactive)
M19-MEL
  GI50: 17.7 µM (inactive)
SK-MEL-5
  GI50: 14.5 µM (inactive)
786-0
  GI50: 10.2 µM (inactive)
A498
  GI50: 20.7 µM (inactive)
NCI-H23
  GI50: 13.1 µM (inactive)
OVCAR-5
  GI50: > 45.1 µM (inactive)
OVCAR-3
  GI50: 20.3 µM (inactive)
SF-539
  GI50: 19.1 µM (inactive)
MDA-MB-435
  GI50: 43.1 µM (inactive)
OVCAR-8
  GI50: 35 µM (inactive)
EKVX
  GI50: > 51.6 µM (inactive)
SNB-75
  GI50: > 74.1 µM (inactive)
SNB-78
  GI50: 50.1 µM (inactive)
DU-145
  GI50: 17 µM (inactive)

## CCOC(=O)Nn1c(C)cc(C(=O)OC)c1C
CCRF-CEM
  GI50: > 100 µM (inactive)
SN12C
  GI50: > 100 µM (inactive)
HL-60
  GI50: > 100 µM (inactive)
LXFL 529
  GI50: > 100 µM (inactive)
SF-268
  GI50: > 100 µM (inactive)
HCC 2998
  GI50: > 100 µM (inactive)
UACC-257
  GI50: > 100 µM (inactive)
IGROV-1
  GI50: > 100 µM (inactive)
TK-10
  GI50: > 100 µM (inactive)
KM-20L2
  GI50: > 100 µM (inactive)
NCI-H522
  GI50: > 100 µM (inactive)
HT-29
  GI50: > 100 µM (inactive)
XF498
  GI50: > 100 µM (inactive)
M14
  GI50: > 100 µM (inactive)
MOLT-4
  GI50: > 100 µM (inactive)
DMS-114
  GI50: > 100 µM (inactive)
NCI-H460
  GI50: > 100 µM (inactive)
LOX IMVI
  GI50: > 100 µM (inactive)
HCT-116
  GI50: > 100 µM (inactive)
DLD-1
  GI50: > 100 µM (inactive)
A549
  GI50: > 100 µM (inactive)
SK-OV-3
  GI50: > 100 µM (inactive)
SNB-19
  GI50: > 100 µM (inactive)
SK-MEL-28
  GI50: > 100 µM (inactive)
K562
  GI50: > 100 µM (inactive)
ACHN
  GI50: > 100 µM (inactive)
DMS-273
  GI50: > 100 µM (inactive)
CAKI-1
  GI50: > 100 µM (inactive)
HCT-15
  GI50: > 100 µM
SK-MEL-2
  GI50: > 100 µM (inactive)
SW-620
  GI50: > 100 µM (inactive)
Malme-3M
  GI50: > 100 µM (inactive)
UACC-62
  GI50: > 100 µM (inactive)
HOP-62
  GI50: > 100 µM (inactive)
NCI-H226
  GI50: > 100 µM (inactive)
SF-295
  GI50: > 100 µM (inactive)
COLO 205
  GI50: > 100 µM (inactive)
RXF 393
  GI50: > 100 µM (inactive)
U-251
  GI50: > 100 µM (inactive)
KM12
  GI50: > 100 µM (inactive)
RPMI-8226
  GI50: > 100 µM (inactive)
UO-31
  GI50: > 100 µM (inactive)
M19-MEL
  GI50: > 100 µM (inactive)
SK-MEL-5
  GI50: > 100 µM (inactive)
786-0
  GI50: > 100 µM (inactive)
A498
  GI50: > 100 µM (inactive)
NCI-H23
  GI50: > 100 µM (inactive)
OVCAR-5
  GI50: > 100 µM (inactive)
OVCAR-3
  GI50: > 100 µM (inactive)
SF-539
  GI50: > 100 µM (inactive)
OVCAR-8
  GI50: > 100 µM (inactive)
EKVX
  GI50: > 100 µM (inactive)
SNB-75
  GI50: > 100 µM (inactive)
SNB-78
  GI50: > 100 µM (inactive)

## Cc1ccc(C2NC(=O)c3ccccc3N2)s1 (centres undefined)
CCRF-CEM
  GI50: 3.27 µM (inactive)
SN12C
  GI50: 4.79 µM (inactive)
HL-60
  GI50: 2.92 µM (inactive)
LXFL 529
  GI50: 7.64 µM (inactive)
SF-268
  GI50: 8 µM (inactive)
HCC 2998
  GI50: 7.05 µM (inactive)
SR
  GI50: 8.3 µM (inactive)
UACC-257
  GI50: 2.32 µM (inactive)
IGROV-1
  GI50: 6.67 µM (inactive)
TK-10
  GI50: > 100 µM (inactive)
KM-20L2
  GI50: 4.55 µM (inactive)
NCI-H522
  GI50: 4.26 µM (inactive)
XF498
  GI50: 3.21 µM (inactive)
M14
  GI50: 8.05 µM (inactive)
MOLT-4
  GI50: 3.07 µM (inactive)
DMS-114
  GI50: 5.21 µM (inactive)
NCI-H460
  GI50: 4.25 µM (inactive)
LOX IMVI
  GI50: 6.55 µM (inactive)
HCT-116
  GI50: 6.31 µM (inactive)
DLD-1
  GI50: 5.02 µM (inactive)
A549
  GI50: 8.83 µM (inactive)
SK-OV-3
  GI50: 5.4 µM (inactive)
SNB-19
  GI50: 59.6 µM (inactive)
SK-MEL-28
  GI50: 5.81 µM (inactive)
K562
  GI50: 3.2 µM (inactive)
ACHN
  GI50: > 100 µM (inactive)
DMS-273
  GI50: 4.25 µM (inactive)
HCT-15
  GI50: 4.09 µM
SK-MEL-2
  GI50: 3.75 µM (inactive)
SW-620
  GI50: 2.94 µM (inactive)
Malme-3M
  GI50: 4.8 µM (inactive)
UACC-62
  GI50: 5.51 µM (inactive)
HOP-62
  GI50: 4.37 µM (inactive)
SF-295
  GI50: 2.37 µM (inactive)
RXF 393
  GI50: 5.86 µM (inactive)
U-251
  GI50: 4.6 µM (inactive)
KM12
  GI50: 4.61 µM (inactive)
RPMI-8226
  GI50: 4.69 µM (inactive)
UO-31
  GI50: 7.38 µM (inactive)
M19-MEL
  GI50: 6.12 µM (inactive)
SK-MEL-5
  GI50: 2.88 µM (inactive)
786-0
  GI50: 5.69 µM (inactive)
A498
  GI50: 6.78 µM (inactive)
NCI-H23
  GI50: 4.36 µM (inactive)
OVCAR-5
  GI50: 10 µM (inactive)
OVCAR-3
  GI50: 3.8 µM (inactive)
SF-539
  GI50: 3.28 µM (inactive)
OVCAR-8
  GI50: 8.43 µM (inactive)
EKVX
  GI50: > 100 µM (inactive)
SNB-78
  GI50: 33.2 µM (inactive)
